Test results as given in patent US8288367B2, “Substituted estratriene derivatives as 17BETA HSD inhibitors” (Solvay Pharmaceuticals GmBH, priority 2006, dated 2012).

Legend:
[1] = target: T1, recombinant human 17β-HSD1 (Homo sapiens, UniProt P14061); assay: Recombinant 17β-HSD1 assay (HPLC, 3H-estrone conversion); assay type: biochemical; settings: 30 nM estrone, 1 mM NADPH, 30 min RT, read-out: Inhibition of rec. 17β-HSD1; for inhibition at 0.1 µM: 100 nM compound; for inhibition at 1 µM: 0.5 h, 1 μm compound
T1 construct: made in house; host or cells: Sf9 insect cells (baculovirus, Bac to Bac Expression System)
T1 sequence (P14061 1-328): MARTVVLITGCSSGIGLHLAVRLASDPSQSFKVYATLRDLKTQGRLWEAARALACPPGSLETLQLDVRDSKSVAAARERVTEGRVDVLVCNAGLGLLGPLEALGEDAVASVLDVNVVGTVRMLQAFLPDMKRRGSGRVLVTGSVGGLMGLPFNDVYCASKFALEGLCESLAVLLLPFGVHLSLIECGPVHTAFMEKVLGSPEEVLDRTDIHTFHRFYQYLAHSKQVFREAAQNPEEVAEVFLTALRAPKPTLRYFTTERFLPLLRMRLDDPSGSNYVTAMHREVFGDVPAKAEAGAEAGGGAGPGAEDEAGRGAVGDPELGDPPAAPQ
Method in brief: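 Sf9-expressed human 17β-HSD1 homogenate (0.1 μg/ml) in 20 mM KH2PO4 pH 7.4 with 30 nM estrone plus 3H-estrone tracer and 1 mM NADPH, 30 min at RT, inhibitors at 1 μM or 0.1 μM. Stopped with TCA; estrone and estradiol separated by reverse-phase HPLC with flow scintillation; % inhibition = 100 − % conversion.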

[2] = target: T2, recombinant human 17β-HSD2 (Homo sapiens, UniProt P37059); assay: Recombinant 17β-HSD2 assay (HPLC, 3H-estradiol conversion); assay type: biochemical; settings: 50 nM estradiol, 1 mM β-NAD, read-out: Inhibition of rec. 17β-HSD2; for inhibition at 0.1 µM: 100 nM compound; for inhibition at 1 µM: 1 μm compound
T2 construct: made in house; host or cells: Sf9 insect cells (baculovirus, Bac to Bac Expression System)
T2 sequence (P37059 1-387): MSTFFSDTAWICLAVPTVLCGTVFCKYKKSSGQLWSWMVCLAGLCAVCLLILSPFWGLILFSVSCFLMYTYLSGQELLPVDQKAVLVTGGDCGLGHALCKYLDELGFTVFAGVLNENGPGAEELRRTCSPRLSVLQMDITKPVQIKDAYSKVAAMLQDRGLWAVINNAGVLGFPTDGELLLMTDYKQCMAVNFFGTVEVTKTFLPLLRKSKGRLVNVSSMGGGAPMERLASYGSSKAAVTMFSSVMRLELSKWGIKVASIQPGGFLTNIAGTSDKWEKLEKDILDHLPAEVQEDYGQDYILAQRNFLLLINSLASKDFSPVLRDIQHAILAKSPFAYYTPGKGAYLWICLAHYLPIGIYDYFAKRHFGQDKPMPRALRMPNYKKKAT
Method in brief: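 Homogenate of Sf9 cells expressing recombinant human 17β-HSD2 (6 μg/ml protein) incubated with 50 nM estradiol plus 3H-estradiol tracer and 1 mM β-NAD. Estrone and estradiol radioactivity separated by HPLC; % inhibition = 100 − % conversion to estrone.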

[3] = target: T3, 17β-HSD3 enzyme (Homo sapiens, UniProt P37058); assay: Inhibition of 17β-HSD type 3 enzyme in MCF-7 cells stably expressing 17β-HSD3 (HPLC); assay type: cell-based; settings: MCF7, MCF-7 cells expressing 17β-HSD3, 2 nM androstenedione; for inhibition at 1 µM: 1 μM compound; for inhibition at 10 µM: 10 μM compound
T3 construct: expressed in transfected cells; host or cells: MCF-7 cell lines stably expressing 17β-HSD3
T3 sequence (P37058 1-310): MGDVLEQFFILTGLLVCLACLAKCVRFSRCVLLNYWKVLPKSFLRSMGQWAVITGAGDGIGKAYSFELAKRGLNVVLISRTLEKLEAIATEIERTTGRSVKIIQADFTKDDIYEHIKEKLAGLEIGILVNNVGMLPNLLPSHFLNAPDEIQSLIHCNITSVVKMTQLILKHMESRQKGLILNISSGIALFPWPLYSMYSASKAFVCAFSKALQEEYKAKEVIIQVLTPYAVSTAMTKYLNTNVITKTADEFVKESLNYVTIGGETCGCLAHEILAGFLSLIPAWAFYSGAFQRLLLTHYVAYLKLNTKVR
Protocol: The compounds were screened in respect of 17β-HSD3 enzyme activity in vitro on established MCF-7 cell lines, each stably expressing the 17β-HSD3 enzyme. The interconversion of substrate by 17β-HSD3 and the 17β-HSD3 inhibiting activity of chemical compounds in these cell lines were detected by HPLC system.
Varying amounts of the test compounds were incubated in the growth medium of the 17β-HSD3 expressing cells together tritium labeled androstenedione (2 nM). The medium samples were removed after exact incubation time and the reaction is stopped by trichloroacetic acid (TCA). The samples were analyzed by HPLC-coupled flow scintillation analysis.
Conversion: The 17β-HSD3 inhibiting activity of an individual test compound was calculated by comparing the conversion of a control sample without any test compound (referred to as “Negative Control”) to the (reduced) conversion of the test sample containing the particular compound to be tested (referred to as “Test Sample”).

SMILES | inhibition at 0.1 µM [1] [%] | inhibition at 1 µM [1] [%] | inhibition at 0.1 µM [2] [%] | inhibition at 1 µM [2] [%] | inhibition at 1 µM [3] [%] | inhibition at 10 µM [3] [%]
CCN(CC)C(=O)CC[C@@H]1CC(F)(F)[C@@]2(C)CC[C@@H]3c4ccc(B(O)O)cc4CC[C@H]3[C@H]12 [Compound 71, [15beta-[3-(diethylamino)-3-oxopropyl]-17,17-difluoroestra-1(10),2,4-trien-3-yl]boronic acid] | 78 | 85 | 7.9 | 16.3 | 31 | 60
COc1ccc(CCN(C)C(=O)CC[C@@H]2CC(F)(F)[C@@]3(C)CC[C@@H]4c5ccc(B(O)O)cc5CC[C@H]4[C@H]23)cc1OC [Compound 72, [15beta-(3-{[2-(3,4-dimethoxyphenyl)ethyl](methyl)amino}-3-oxopropyl)-17,17-difluoroestra-1(10),2,4-trien-3-yl]boronic acid] | 39 | 77 | -2.4 | 5.3 | 45 | 71
C[C@]12CC[C@@H]3c4ccc(Nc5ccc6c(c5)S(=O)(=O)C=C6)cc4CC[C@H]3[C@@H]1[C@@H](CCCC(=O)N1CCOCC1)CC2=O [Compound 91, 3-[(1,1-dioxido-1-benzothien-6-yl)amino]-15alpha-(4-morpholin-4-yl-4-oxobutyl)estra-1(10),2,4-trien-17-one] | 36 | 69 | 0.7 | 5.7 | 7 | 52
